Assays:
Test in all cases: KINOMEscan
Format in all cases: binding
Conditions in all cases: 1.0 µM
[1] = target: T1, CSNK1A1L (Homo sapiens, UniProt Q8N752)
T1 construct: purchased Eurofins/DiscoverX KINOMEscan scanMAX
Procedure: (§1) Kinase retention to the immobilized ligand is then measured using quantitative real-time PCR for each kinase-specific DNA barcode.

[2] = target: T2, RIPK2 (Homo sapiens, UniProt O43353)
T2 construct: purchased Eurofins/DiscoverX KINOMEscan scanMAX
Procedure: as §1

[3] = target: T3, RSK3(Kin.Dom.2-C-terminal) (Homo sapiens, UniProt Q15349)
T3 construct: RSK3(Kin.Dom.2-C-terminal); purchased Eurofins/DiscoverX KINOMEscan scanMAX
Procedure: as §1

[4] = target: T4, EPHB1 (Homo sapiens, UniProt P54762)
T4 construct: purchased Eurofins/DiscoverX KINOMEscan scanMAX
Procedure: as §1

[5] = target: T5, BIKE (Homo sapiens, UniProt Q9NSY1)
T5 construct: purchased Eurofins/DiscoverX KINOMEscan scanMAX
Procedure: as §1

[6] = target: T6, BUB1 (Homo sapiens, UniProt O43683)
T6 construct: purchased Eurofins/DiscoverX KINOMEscan scanMAX
Procedure: as §1

[7] = target: T7, LKB1 (Homo sapiens, UniProt Q15831)
T7 construct: purchased Eurofins/DiscoverX KINOMEscan scanMAX
Procedure: as §1

[8] = target: T8, AKT2 (Homo sapiens, UniProt P31751)
T8 construct: purchased Eurofins/DiscoverX KINOMEscan scanMAX
Procedure: as §1

[9] = target: T9, PAK2 (Homo sapiens, UniProt Q13177)
T9 construct: purchased Eurofins/DiscoverX KINOMEscan scanMAX
Procedure: as §1

[10] = target: T10, STK16 (Homo sapiens, UniProt O75716)
T10 construct: purchased Eurofins/DiscoverX KINOMEscan scanMAX
Procedure: as §1

[11] = target: T11, MKK7 (Homo sapiens, UniProt O14733)
T11 construct: purchased Eurofins/DiscoverX KINOMEscan scanMAX
Procedure: as §1

[12] = target: T12, TNK1 (Homo sapiens, UniProt Q13470)
T12 construct: purchased Eurofins/DiscoverX KINOMEscan scanMAX
Procedure: as §1

[13] = target: T13, NEK6 (Homo sapiens, UniProt Q9HC98)
T13 construct: purchased Eurofins/DiscoverX KINOMEscan scanMAX
Procedure: as §1

[14] = target: T14, EPHA7 (Homo sapiens, UniProt Q15375)
T14 construct: purchased Eurofins/DiscoverX KINOMEscan scanMAX
Procedure: as §1

[15] = target: T15, SBK1 (Homo sapiens, UniProt Q52WX2)
T15 construct: purchased Eurofins/DiscoverX KINOMEscan scanMAX
Procedure: as §1

[16] = target: T16, CASK (Homo sapiens, UniProt O14936)
T16 construct: purchased Eurofins/DiscoverX KINOMEscan scanMAX
Procedure: as §1

[17] = target: T17, PDGFRA (Homo sapiens, UniProt P16234)
T17 construct: purchased Eurofins/DiscoverX KINOMEscan scanMAX
Procedure: as §1

[18] = target: T18, STK33 (Homo sapiens, UniProt Q9BYT3)
T18 construct: purchased Eurofins/DiscoverX KINOMEscan scanMAX
Procedure: as §1

[19] = target: T19, PIK3C2B (Homo sapiens, UniProt O00750)
T19 construct: purchased Eurofins/DiscoverX KINOMEscan scanMAX
Procedure: as §1

[20] = target: T20, PIP5K2B (Homo sapiens, UniProt P78356)
T20 construct: purchased Eurofins/DiscoverX KINOMEscan scanMAX
Procedure: as §1

[21] = target: T21, NEK1 (Homo sapiens, UniProt Q96PY6)
T21 construct: purchased Eurofins/DiscoverX KINOMEscan scanMAX
Procedure: as §1

[22] = target: T22, ASK1 (Homo sapiens, UniProt Q99683)
T22 construct: purchased Eurofins/DiscoverX KINOMEscan scanMAX
Procedure: as §1

[23] = target: T23, JAK1(JH1domain-catalytic) (Homo sapiens, UniProt P23458)
T23 construct: JAK1(JH1domain-catalytic); purchased Eurofins/DiscoverX KINOMEscan scanMAX
Procedure: as §1

[24] = target: T24, INSRR (Homo sapiens, UniProt P14616)
T24 construct: purchased Eurofins/DiscoverX KINOMEscan scanMAX
Procedure: as §1

[25] = target: T25, MAP3K1 (Homo sapiens, UniProt Q13233)
T25 construct: purchased Eurofins/DiscoverX KINOMEscan scanMAX
Procedure: as §1

[26] = target: T26, LOK (Homo sapiens, UniProt O94804)
T26 construct: purchased Eurofins/DiscoverX KINOMEscan scanMAX
Procedure: as §1

[27] = target: T27, ERK2 (Homo sapiens, UniProt P28482)
T27 construct: purchased Eurofins/DiscoverX KINOMEscan scanMAX
Procedure: as §1

[28] = target: T28, MEK2 (Homo sapiens, UniProt P36507)
T28 construct: purchased Eurofins/DiscoverX KINOMEscan scanMAX
Procedure: as §1

[29] = target: T29, CDK2 (Homo sapiens, UniProt P24941)
T29 construct: purchased Eurofins/DiscoverX KINOMEscan scanMAX
Procedure: as §1

[30] = target: T30, CIT (Homo sapiens, UniProt O14578)
T30 construct: purchased Eurofins/DiscoverX KINOMEscan scanMAX
Procedure: as §1

[31] = target: T31, CDKL1 (Homo sapiens, UniProt Q00532)
T31 construct: purchased Eurofins/DiscoverX KINOMEscan scanMAX
Procedure: as §1

[32] = target: T32, TESK1 (Homo sapiens, UniProt Q15569)
T32 construct: purchased Eurofins/DiscoverX KINOMEscan scanMAX
Procedure: as §1

[33] = target: T33, SRPK2 (Homo sapiens, UniProt P78362)
T33 construct: purchased Eurofins/DiscoverX KINOMEscan scanMAX
Procedure: as §1

[34] = target: T34, CAMK1 (Homo sapiens, UniProt Q14012)
T34 construct: purchased Eurofins/DiscoverX KINOMEscan scanMAX
Procedure: as §1

[35] = target: T35, TAOK3 (Homo sapiens, UniProt Q9H2K8)
T35 construct: purchased Eurofins/DiscoverX KINOMEscan scanMAX
Procedure: as §1

[36] = target: T36, p38-alpha (Homo sapiens, UniProt Q16539)
T36 construct: purchased Eurofins/DiscoverX KINOMEscan scanMAX
Procedure: as §1

[37] = target: T37, MAPKAPK2 (Homo sapiens, UniProt P49137)
T37 construct: purchased Eurofins/DiscoverX KINOMEscan scanMAX
Procedure: as §1

[38] = target: T38, YANK2 (Homo sapiens, UniProt Q9NY57)
T38 construct: purchased Eurofins/DiscoverX (KINOMEscan scanMAX service)
Procedure: as §1

[39] = target: T39, PRKR (Homo sapiens, UniProt P19525)
T39 construct: purchased Eurofins/DiscoverX KINOMEscan scanMAX
Procedure: as §1

[40] = target: T40, FLT3 (Homo sapiens, UniProt P36888)
T40 construct: purchased Eurofins/DiscoverX KINOMEscan scanMAX
Procedure: as §1

[41] = target: T41, GCN2(Kin.Dom.2,S808G) (Homo sapiens, UniProt Q9P2K8, S808G)
T41 construct: GCN2(Kin.Dom.2,S808G); purchased Eurofins/DiscoverX KINOMEscan scanMAX
Procedure: as §1

[42] = target: T42, TRKB (Homo sapiens, UniProt Q16620)
T42 construct: purchased Eurofins/DiscoverX KINOMEscan scanMAX
Procedure: as §1

T32 sequence (Q15569 whole entry): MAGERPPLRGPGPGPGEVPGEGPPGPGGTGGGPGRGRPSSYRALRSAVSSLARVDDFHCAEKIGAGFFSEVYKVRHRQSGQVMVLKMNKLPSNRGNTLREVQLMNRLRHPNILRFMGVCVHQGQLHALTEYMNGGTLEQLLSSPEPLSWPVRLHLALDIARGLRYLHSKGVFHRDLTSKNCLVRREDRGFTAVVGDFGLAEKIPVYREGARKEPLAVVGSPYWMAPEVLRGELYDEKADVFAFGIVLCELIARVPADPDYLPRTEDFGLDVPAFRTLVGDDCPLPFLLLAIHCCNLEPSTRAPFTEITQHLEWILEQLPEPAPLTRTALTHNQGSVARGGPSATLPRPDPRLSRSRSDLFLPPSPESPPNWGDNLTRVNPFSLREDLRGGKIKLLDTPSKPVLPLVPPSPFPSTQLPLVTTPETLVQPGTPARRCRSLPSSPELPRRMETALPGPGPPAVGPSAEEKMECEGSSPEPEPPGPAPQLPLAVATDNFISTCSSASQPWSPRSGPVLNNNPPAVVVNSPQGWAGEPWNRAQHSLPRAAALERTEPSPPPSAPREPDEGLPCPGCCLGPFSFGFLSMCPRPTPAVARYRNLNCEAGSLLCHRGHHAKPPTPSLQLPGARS
T36 sequence (Q16539 whole entry): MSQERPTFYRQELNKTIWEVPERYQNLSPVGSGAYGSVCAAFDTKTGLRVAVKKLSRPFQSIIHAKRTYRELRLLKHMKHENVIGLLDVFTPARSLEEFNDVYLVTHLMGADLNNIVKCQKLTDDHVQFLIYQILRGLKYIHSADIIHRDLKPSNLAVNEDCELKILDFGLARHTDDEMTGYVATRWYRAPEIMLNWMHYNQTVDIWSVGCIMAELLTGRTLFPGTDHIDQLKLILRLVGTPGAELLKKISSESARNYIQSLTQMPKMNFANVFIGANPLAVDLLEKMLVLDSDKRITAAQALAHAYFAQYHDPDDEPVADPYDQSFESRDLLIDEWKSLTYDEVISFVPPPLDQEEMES
T18 sequence (Q9BYT3 whole entry): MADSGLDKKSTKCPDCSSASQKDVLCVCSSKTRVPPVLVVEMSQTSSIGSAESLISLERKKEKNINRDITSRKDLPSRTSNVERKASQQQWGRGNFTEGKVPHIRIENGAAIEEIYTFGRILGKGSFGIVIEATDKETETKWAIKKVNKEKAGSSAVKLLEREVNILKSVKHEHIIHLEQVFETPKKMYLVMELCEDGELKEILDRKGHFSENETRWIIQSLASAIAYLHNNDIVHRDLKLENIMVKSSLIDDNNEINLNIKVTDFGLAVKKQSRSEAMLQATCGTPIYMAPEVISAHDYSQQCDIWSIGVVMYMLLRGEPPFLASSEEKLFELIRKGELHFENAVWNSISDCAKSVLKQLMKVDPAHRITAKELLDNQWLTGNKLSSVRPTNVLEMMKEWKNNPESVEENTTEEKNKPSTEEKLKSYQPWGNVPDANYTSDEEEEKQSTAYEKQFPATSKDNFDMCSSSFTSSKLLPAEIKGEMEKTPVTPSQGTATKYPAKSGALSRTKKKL
T9 sequence (Q13177 whole entry): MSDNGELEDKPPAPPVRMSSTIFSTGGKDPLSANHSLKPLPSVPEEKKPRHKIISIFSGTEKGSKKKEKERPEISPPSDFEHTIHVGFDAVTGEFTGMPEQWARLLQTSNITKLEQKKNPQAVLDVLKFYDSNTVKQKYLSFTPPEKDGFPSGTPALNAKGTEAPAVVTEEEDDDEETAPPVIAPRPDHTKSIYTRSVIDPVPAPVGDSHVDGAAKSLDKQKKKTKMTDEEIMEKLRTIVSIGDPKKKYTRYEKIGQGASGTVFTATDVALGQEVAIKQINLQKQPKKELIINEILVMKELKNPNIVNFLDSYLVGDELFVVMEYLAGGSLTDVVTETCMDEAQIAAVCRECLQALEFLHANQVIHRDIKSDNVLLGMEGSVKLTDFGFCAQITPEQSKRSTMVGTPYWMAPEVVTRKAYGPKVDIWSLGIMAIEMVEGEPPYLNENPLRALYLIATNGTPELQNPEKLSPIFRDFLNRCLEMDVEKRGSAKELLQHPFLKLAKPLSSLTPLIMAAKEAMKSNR
T41 sequence (Q9P2K8 590-1001 S808G limits assumed): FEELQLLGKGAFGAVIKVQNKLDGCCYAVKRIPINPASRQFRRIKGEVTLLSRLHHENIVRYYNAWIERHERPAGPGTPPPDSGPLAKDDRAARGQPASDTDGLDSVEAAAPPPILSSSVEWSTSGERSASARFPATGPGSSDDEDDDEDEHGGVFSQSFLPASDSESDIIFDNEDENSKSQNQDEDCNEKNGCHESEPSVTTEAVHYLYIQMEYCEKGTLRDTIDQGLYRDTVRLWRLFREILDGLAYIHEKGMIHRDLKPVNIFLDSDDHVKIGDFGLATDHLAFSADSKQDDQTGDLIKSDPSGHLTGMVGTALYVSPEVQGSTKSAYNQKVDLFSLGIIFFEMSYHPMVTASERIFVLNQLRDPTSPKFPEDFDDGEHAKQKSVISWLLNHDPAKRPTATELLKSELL
T25 sequence (Q13233 whole entry): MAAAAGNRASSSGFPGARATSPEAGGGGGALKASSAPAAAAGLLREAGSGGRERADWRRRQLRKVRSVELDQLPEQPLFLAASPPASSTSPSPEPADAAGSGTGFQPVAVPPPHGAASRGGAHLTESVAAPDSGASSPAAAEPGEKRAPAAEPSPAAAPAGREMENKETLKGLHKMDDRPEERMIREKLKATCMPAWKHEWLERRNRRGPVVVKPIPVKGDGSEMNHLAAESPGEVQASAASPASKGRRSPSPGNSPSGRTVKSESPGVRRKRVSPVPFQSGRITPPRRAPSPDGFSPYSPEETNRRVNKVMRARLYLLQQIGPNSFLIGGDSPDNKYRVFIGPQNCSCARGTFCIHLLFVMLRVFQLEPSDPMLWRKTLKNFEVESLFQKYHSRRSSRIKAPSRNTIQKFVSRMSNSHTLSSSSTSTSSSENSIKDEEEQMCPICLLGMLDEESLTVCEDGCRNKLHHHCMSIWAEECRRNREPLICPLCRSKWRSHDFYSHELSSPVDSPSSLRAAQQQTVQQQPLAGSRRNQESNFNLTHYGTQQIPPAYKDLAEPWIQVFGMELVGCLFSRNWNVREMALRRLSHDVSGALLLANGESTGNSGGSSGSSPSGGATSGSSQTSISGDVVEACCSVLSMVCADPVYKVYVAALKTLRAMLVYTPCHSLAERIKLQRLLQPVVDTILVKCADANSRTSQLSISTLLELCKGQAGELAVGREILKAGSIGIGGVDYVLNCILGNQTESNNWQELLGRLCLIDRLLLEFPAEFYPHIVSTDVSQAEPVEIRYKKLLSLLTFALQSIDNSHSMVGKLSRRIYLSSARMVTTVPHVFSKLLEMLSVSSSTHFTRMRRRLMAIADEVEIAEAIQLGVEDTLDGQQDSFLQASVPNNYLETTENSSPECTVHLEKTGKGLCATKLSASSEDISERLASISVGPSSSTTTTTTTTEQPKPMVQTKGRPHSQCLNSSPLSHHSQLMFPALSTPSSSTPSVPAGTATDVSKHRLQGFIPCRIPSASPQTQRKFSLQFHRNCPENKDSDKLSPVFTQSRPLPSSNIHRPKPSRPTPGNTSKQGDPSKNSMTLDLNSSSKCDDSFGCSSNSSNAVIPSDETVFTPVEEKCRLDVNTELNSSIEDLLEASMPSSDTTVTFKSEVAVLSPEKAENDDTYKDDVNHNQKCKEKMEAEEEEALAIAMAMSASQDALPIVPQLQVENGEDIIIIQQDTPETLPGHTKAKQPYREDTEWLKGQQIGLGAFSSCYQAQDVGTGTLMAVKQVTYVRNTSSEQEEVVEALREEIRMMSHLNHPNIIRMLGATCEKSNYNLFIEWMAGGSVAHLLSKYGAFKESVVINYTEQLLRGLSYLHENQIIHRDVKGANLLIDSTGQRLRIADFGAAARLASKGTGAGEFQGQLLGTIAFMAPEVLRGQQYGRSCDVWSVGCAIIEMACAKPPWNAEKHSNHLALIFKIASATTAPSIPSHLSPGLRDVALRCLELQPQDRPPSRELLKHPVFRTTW
T17 sequence (P16234 24-1089): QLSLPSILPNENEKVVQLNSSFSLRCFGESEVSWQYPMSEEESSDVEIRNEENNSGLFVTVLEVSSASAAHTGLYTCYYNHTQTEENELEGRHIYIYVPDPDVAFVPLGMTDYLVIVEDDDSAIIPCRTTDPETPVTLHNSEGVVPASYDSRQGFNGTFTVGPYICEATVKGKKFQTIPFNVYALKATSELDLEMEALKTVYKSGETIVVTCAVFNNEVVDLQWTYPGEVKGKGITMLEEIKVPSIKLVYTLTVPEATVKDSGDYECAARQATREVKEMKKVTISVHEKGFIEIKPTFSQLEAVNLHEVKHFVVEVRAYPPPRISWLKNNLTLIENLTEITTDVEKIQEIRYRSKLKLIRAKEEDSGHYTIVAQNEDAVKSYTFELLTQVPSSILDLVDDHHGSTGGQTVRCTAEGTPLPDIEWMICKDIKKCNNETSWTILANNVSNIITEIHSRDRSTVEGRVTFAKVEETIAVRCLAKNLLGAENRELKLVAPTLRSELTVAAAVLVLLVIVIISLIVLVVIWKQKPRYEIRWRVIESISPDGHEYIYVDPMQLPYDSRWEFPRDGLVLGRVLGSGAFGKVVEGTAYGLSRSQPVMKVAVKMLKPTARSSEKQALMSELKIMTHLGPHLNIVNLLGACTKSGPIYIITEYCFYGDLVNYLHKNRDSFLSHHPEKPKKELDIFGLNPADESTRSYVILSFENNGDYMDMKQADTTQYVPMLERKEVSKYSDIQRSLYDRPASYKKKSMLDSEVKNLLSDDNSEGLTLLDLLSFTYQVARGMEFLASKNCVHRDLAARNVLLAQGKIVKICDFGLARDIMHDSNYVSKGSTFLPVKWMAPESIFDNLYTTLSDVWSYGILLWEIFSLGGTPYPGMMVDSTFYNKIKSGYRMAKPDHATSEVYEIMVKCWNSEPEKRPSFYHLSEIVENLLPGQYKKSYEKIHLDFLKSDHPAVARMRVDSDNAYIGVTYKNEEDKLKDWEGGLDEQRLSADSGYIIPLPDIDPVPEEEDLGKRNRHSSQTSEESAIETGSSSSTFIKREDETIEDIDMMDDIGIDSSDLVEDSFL

CN1CCN(C2CCC(n3cc(-c4ccc(Oc5ccccc5)cc4)c4c(N)ncnc43)CC2)CC1 (stereo not drawn) [A-419259]
% Control [1]: 64% | % Control [2]: 3.6% | % Control [3]: 100% | % Control [4]: 96% | % Control [5]: 80% | % Control [6]: 100% | % Control [7]: 100% | % Control [8]: 92% | % Control [9]: 91% | % Control [10]: 100% | % Control [11]: 46% | % Control [12]: 0% | % Control [13]: 65% | % Control [14]: 100% | % Control [15]: 96% | % Control [16]: 67% | % Control [17]: 1.1% | % Control [18]: 30% | % Control [19]: 10% | % Control [20]: 94% | % Control [21]: 100% | % Control [22]: 100% | % Control [23]: 99% | % Control [24]: 86% | % Control [25]: 92% | % Control [26]: 20% | % Control [27]: 77% | % Control [28]: 0.2% | % Control [29]: 70% | % Control [30]: 79% | % Control [31]: 99% | % Control [32]: 95% | % Control [33]: 97% | % Control [34]: 92% | % Control [35]: 100% | % Control [36]: 100% | % Control [37]: 100% | % Control [38]: 30% | % Control [39]: 100% | % Control [40]: 0.65% | % Control [41]: 79% | % Control [42]: 29%

— article PMC6886798, “Expression of myeloid Src-family kinases is associated with poor prognosis in AML and influences Flt3-ITD kinase inhibitor acquired resistance” (PLoS ONE, 2019)
